The values below come from US20040052922A1, “Nutritional and therapeutical preparations having antioxidant activity” (priority 2000, published 2004).

What all share (format): in vivo, rat
The subject of test [1] is membrane of plasma platelets. Kind of test: Membrane fluidity of plasma platelets (TMA-DPH fluorescent probe) in rats on hypercaloric, hyperlipidemizing diet. The settings on record: expressed as % compared with controls values at time 0; after 20 days of dietary treatment. The protocol:
(§1) Rats received hypercaloric, hypertriglyceridemizing and hypercholesterolemizing diet. After twenty days of treatment, the effect of the compositions on the following parameters was evaluated: 80 Male rats, each weighing 150-200 g, were used. The animals were subdivided into 8 groups of 10 animals each: […] 20% casein; 3.5% mixture of oligoelements and mineral salts; 0.1% mixture of vitamins; 0.2% choline ditartrate; 2% cellulose; cholesterol 0.5%; 0.25% sodium cholate; 58.44% saccharose; 10.0% lard and 4.9% olive oil. […] 3rd group A: animals were treated with a polycosanols mixture (octacosanol=50%) of rice wax (PLC), animals received for 20 days the same diet as the controls, except that 0.5 g of rice wax polycosanols replaced in part a similar amount of olive oil (olive oil used: 4.4%). […] 5th group: treated with 1-piperoylpiperidine (P); animals received for 20 days the same diet as the controls, except that 0.025 g of 1-piperoylpiperidine replaced a similar amount of olive oil (olive oil used: 4.875%). […] Membrane fluidity of erythrocyte ghosts and plasma platelets was measured using TMA-DPH as fluorescent probe, according to the method by […]. et al., 1999, Thromb. Hoemost., 82 pp. 149.

The nature of test [2]: Body weight of rats on hypercaloric diet. The protocol:
(§2) Rats received hypercaloric, hypertriglyceridemizing and hypercholesterolemizing diet. After twenty days of treatment, the effect of the compositions on the following parameters was evaluated: 2) body weight; 80 Male rats, each weighing 150-200 g, were used. The animals were subdivided into 8 groups of 10 animals each: […] 20% casein; 3.5% mixture of oligoelements and mineral salts; 0.1% mixture of vitamins; 0.2% choline ditartrate; 2% cellulose; cholesterol 0.5%; 0.25% sodium cholate; 58.44% saccharose; 10.0% lard and 4.9% olive oil. […] 3rd group A: animals were treated with a polycosanols mixture (octacosanol=50%) of rice wax (PLC), animals received for 20 days the same diet as the controls, except that 0.5 g of rice wax polycosanols replaced in part a similar amount of olive oil (olive oil used: 4.4%). […] 5th group: treated with 1-piperoylpiperidine (P); animals received for 20 days the same diet as the controls, except that 0.025 g of 1-piperoylpiperidine replaced a similar amount of olive oil (olive oil used: 4.875%).

The test system of test [3] is membrane of erythrocyte ghosts. The test is described as follows: Membrane fluidity of erythrocyte ghosts (TMA-DPH fluorescent probe) in rats on hypercaloric, hyperlipidemizing diet. The settings on record: expressed as % compared with controls values at time 0; after 20 days of dietary treatment. The protocol:
as §1

Test [4] is described as follows: Total cholesterol, HDL cholesterol and triglycerids plasma levels in rats on hypercaloric diet. The protocol:
as §2, with “4) total cholesterol and HDL cholesterol plasma levels; 5) total triglycerids plasma levels.” for “2) body weight;”

Another test relates to lipoperoxides. The test is described as follows: Lipoperoxides levels (malonyldialdehyde) in plasma, liver, brain and heart of rats on hypercaloric diet. The protocol: Rats received hypercaloric, hypertriglyceridemizing and hypercholesterolemizing diet. After twenty days of treatment, the effect of the compositions on the following parameters was evaluated: 1) lipoperoxides levels in plasma, liver, brain and heart; 80 Male rats, each weighing 150-200 g, were used. […] 20% casein; 3.5% mixture of oligoelements and mineral salts; 0.1% mixture of vitamins; 0.2% choline ditartrate; 2% cellulose; cholesterol 0.5%; 0.25% sodium cholate; 58.44% saccharose; 10.0% lard and 4.9% olive oil. […] Malonyldialdehyde was evaluated according to the procedure by K. Yagi et al., 1982, in “Lipid Peroxides in Biology and Medicine”, Academic Press, New York, pp. 324-340.

The mark [5] stands for this setting: after 20 days of diet treatment.
Where [6] appears, read: in brackets, control after 20 day diet = 100%.

On to `O=C(/C=C/C=C/c1ccc2c(c1)OCO2)N1CCCCC1` [P, 1-piperoylpiperidine], for which, in test [1], the “membrane fluidity (plasma platelets)” value stood at 70%. Further, the body weight in test [2] (setting [5]) was found to be 223 ± 16 g. In addition, the “body weight, percent change vs control rats after 20 day diet” value in test [2] (setting [6]) was −0.4%. Also, the “membrane fluidity (erythrocyte ghosts)” value in test [3] worked out at 73%. In test [4] (setting [5]), this compound registered an HDL cholesterol of 29.3 ± 1.5 mg/dL, a Total cholesterol of 125.2 ± 12.5 mg/dL and a total triglycerids of 81.9 ± 8.7 mg/dL. Also, in test [4] (setting [6]), the “Total cholesterol, percent change vs control rats after 20 day diet” value is recorded as −0.7% and the “total triglycerids, percent change vs control rats after 20 day diet” value is listed as −0.7%. Also, in the test on lipoperoxides (brain, after 20 day dietary treatment), the “MDA BRAIN” value is listed as 107 ± 5 n mols of malonyldialdehyde (MDA) per gram of tissue. In addition, the “Percent change vs. controls (MDA BRAIN)” value in the test with lipoperoxides (brain, vs control rats after 20 days of diet) was −0.9%. In addition, the “MDA HEART” value with lipoperoxides (heart, after 20 day dietary treatment) is given as 44 ± 7 n mols of malonyldialdehyde (MDA) per gram of tissue. Further, the “Percent change compared with controls (MDA HEART)” value in the test on lipoperoxides (heart, vs control rats after 20 days of diet) is listed as −2.2%. For the same compound, the “MDA LIVER” value in the test on lipoperoxides (liver, after 20 day dietary treatment) was 43.5 ± 7.8 n mols of malonyldialdehyde (MDA) per gram of tissue. Besides, the “Percent change vs. controls (MDA LIVER)” value in the test with lipoperoxides (liver, vs control rats after 20 days of diet) was −1.5%. The “MDA PLASMA” value with lipoperoxides (plasma, after 20 day dietary treatment) is on record as 5.0 ± 0.3 n mols of malonyldialdehyde (M. Also, the “Percent change vs. controls (MDA PLASMA)” value in the test with lipoperoxides (plasma, vs control rats after 20 days of diet) is −1.9%.
